We go through 8 compounds from patent US20240385173A1, “METHODS AND APPARATUS FOR TESTING IMMUNO-ONCOLOGY DRUGS AND BIOLOGICS USING MICROORGANOSPHERES” (Xilis, Inc., priority 2021, published 2024).

The test system of data set [1] is PDX240 bulk organoids and MOSs. Briefly: Cell viability drug response curves, bulk organoids versus MOSs, PDX240. The note with it: cell viabilities after 3 days of treatment. Format: cell-based, human. An excerpt:
In some embodiments, the MOSs may be formed from cell lines grown as part of a Patient Derived Xenograft (PDX). For example, FIGS. 28A-28D illustrate MOSs formed from cultured PDX240 cells. PDX240 cells are a Patient Derived Xenograft (PDX) tumor cell line (numbered 240 based on patient source) that were human tumors grown in immunodeficient mice (PDX) to form in vivo tumors. The xenograft tissue was extracted dissociated, and used to form MOSs as described above. In this example a single cell was included in each MOS as it was formed. […] With progressive time in culture, at least some of the MOSs show the cells dividing and forming structures.
(§1) Organoids were formed from Patient Derived Xenograft cells (including the PDX240 cells described above and a second PDX cell line, PDX19187) and were compared with MOSs formed using the same cells. The organoids were formed using conventional techniques in which a large mass of MATRIGEL in a well or dish was seeded with cells and cultured until growth was confirmed. MOSs were generated from the traditional organoids.
(§2) Both traditional (“bulk”) organoids and the MOSs were then treated with the same drugs (e.g., Oxaliplatin or SN38) and cell viabilities were measured after 3 days of treatment.

For data set [2], the system named is MOSs derived from multiple myeloma (MM) bone marrow biopsies. Briefly: Caspase 3/7 green dye apoptosis assay on multiple myeloma MOSs (Incucyte imaging). Format: cell-based, human. The note with it: MM MOSs on day 11, images every 2 hours for 4 days. How it is done:
FIGS. 44A and 44B show the efficacy of Lenalidomide and Bortezoid on MOSs derived from multiple myeloma (MM) bone marrow biopsies. MM MOSs (on day 11) were treated with Lenalidomine (5 uM) or Bortezoid (2 nM). Caspase 3/7 green dye was added in the assay to monitor apoptosis. Incucyte images were taken every 2 hours for 4 days. […] If this test were run on, for example, traditional bulk organoids, the results would not be reliable (due to the lack of patient immune cells) leading to uncertainty in the best course of action for patient treatment.

Another data set has as its system patient tumor. Put plainly: Actual response of the patient's tumor to drug treatment. Format: in vivo, human. The note with it: for patient response to treatment: Example 3 patient, treated with both Oxalipalatin and Irinotecan, after 6 months of treatment. As to the method: (§3) In a similar set of experiments, MOSs were generated from biopsy material (FIG. 23A), and a drug effect screen was performed using the resulting MOSs. […] Thus, the MOSs correlated strongly with patient response to the standard of care drugs. In this case, the patient endured six months of side effects and toxicities that may have been avoided by the predicted response from the MOSs, indicating (within 7-10 days from the biopsy) that the tumor would not respond to these drugs.

Data set [3] has as its system MOSs from biopsy material. Put plainly: Drug effect screen on MOSs generated from biopsy material (Example 3). The note with it: FIGS. 23B, 23C. Format: cell-based, human. As to the method: as §3
The test system of the next data set is traditional cell line. Put plainly: Traditional (2D) cell line dosed with drug. Format: cell-based. The note with it: all dose ranges examined; FIG. 22A. The text has this: As mentioned above, the MOSs and methods of using them to screen for drug compositions may be used to accurately predict the response of a patient tumor to one or more drug therapies. […] For example, in FIG. 22A-22D, the MOSs, but not a cell line, was able to correlate with patient response.

For data set [4], the system named is tumor MOSs from patient biopsy. Briefly: Drug screen on tumor MOSs generated from a patient biopsy (Example 2). Format: cell-based, human. The note with it: FIG. 22B.
For data set [5], the system named is PDX19187 bulk organoids and MOSs. Format: cell-based, human. As to conditions: PDX19187 (also printed PDO19187, PDZ-19187), cell viabilities after 3 days of treatment. How it is done:
as §1, §2

The test system of another data set is mouse liver MOSs. Put plainly: Toxicity assay using mouse liver MOSs. Format: cell-based. The note with it: 10 mM; FIGS. 33A-33B.
The test system of another data set is human liver MOSs. Briefly: Toxicity assay using human liver MOSs. The note with it: 10 mM; FIGS. 34A-34B. Format: cell-based. The text has this:
Similarly, FIGS. 34A-34B also show toxicity assays using human liver MOSs.

The test system of data set [6] is MOSs derived from pulmonary tumor biopsy. Put plainly: Annexin V apoptosis assay on MOSs derived from a pulmonary tumor biopsy. Format: cell-based, human. How it is done: (§4) Assays of the MOSs for these pulmonary and renal tumor biopsies were prepared with an Annexin V marker to indicate cellular apoptosis. […] If this test were run on, for example, traditional bulk organoids, the results would not be meaningful (due to the lack of patient immune cells) leading to uncertainty in the best course of action for patient treatment.
Assays of the MOSs for this pulmonary tumor biopsy were prepared with an Annexin V marker to indicate cellular apoptosis. […] If this test were run on, for example, traditional bulk organoids, the results would be less accurate (because ESK1 would not be able to reach its target) leading to uncertainty in the best course of action for patient treatment.
Assays of the MOSs for this pulmonary tumor biopsy were prepared with an Annexin V marker to indicate cellular apoptosis and Cytolight Red dye to indicate tumor infiltrating lymphocytes (TIIs). […] If this test were run on, for example, traditional bulk organoids, the results would be less accurate (due to the inability of PBMC to penetrate the traditional bulk organoids) leading to uncertainty in the best course of action for patient treatment.
Assays of the MOSs for this pulmonary tumor biopsy were prepared with an Annexin V marker to indicate cellular apoptosis. […] This is an indication that TIIs can penetrate MOS to kill tumor cells. […]

For data set [7], the system named is MOSs derived from renal tumor biopsy. Briefly: Annexin V apoptosis assay on MOSs derived from a renal tumor biopsy. Format: cell-based, human. As to the method:
as §4

Entries after “also recorded” stand apart in the source; their conditions may differ. Read-outs that look alike come from different tables or passages of the source.

As for `O=c1[nH]cc(F)c(=O)[nH]1` [5-FU, Fluorouracil], in [1], the “drug response curves of bulk organoids compared with MOSs (cell viability)” value is given as “comparable responses”.
With `CC(C)C[C@H](NC(=O)[C@H](Cc1ccccc1)NC(=O)c1cnccn1)B(O)O` [Bortezoid], the “response of MM MOSs in the form of tumor cell apoptosis (Caspase 3/7 green dye)” value in data set [2] (2 nM) is “does not and not”.
For `CCc1c2c(nc3ccc(OC(=O)N4CCC(N5CCCCC5)CC4)cc13)-c1cc3c(c(=O)n1C2)COC(=O)[C@]3(O)CC` [Irinotecan], the “patient response to treatment” value in the data set with patient tumor is listed as “no response”. Also, the “percent survival of the MOSs in the presence of the drug” value in [3] was “lack of effect”.
For `Nc1cccc2c1CN(C1CCC(=O)NC1=O)C2=O` (stereo not drawn) [Lenalidomide], the “response of MM MOSs in the form of tumor cell apoptosis (Caspase 3/7 green dye)” value in data set [2] (5 uM) was “good response”; in data set [2] (5 uM, listed as Lenalidomine), “induces apoptosis”.
Take `O=C1[O][Pt]2([NH][C@@H]3CCCC[C@H]3[NH]2)[O]C1=O` [Oxaliplatin]: the “effect of drug on traditional cell line” value with traditional cell line is given as “no effect”. Moreover, the “cell survival from the tumor MOSs” value in [4] is listed as “significant decreases in cell survival”. In the data set with patient tumor (Example 2 patient, FIGS. 22C (before) and 22D (post treatment)), the “tumor response when patient treated with the drug” value is on record as “responded to treatment”. Besides, the “patient response to treatment” value in the data set with patient tumor is “no response”. The “percent survival of the MOSs in the presence of the drug” value in data set [3] is listed as “no change in the percent survival”. Moreover, the “drug response curves of bulk organoids compared with MOSs (cell viability)” value in data set [5] (listed as Oxalipalatin) was “comparable response”.
For `CCc1c2c(nc3ccc(O)cc13)-c1cc3c(c(=O)n1C2)COC(=O)[C@]3(O)CC` [SN38, 7-Ethyl-10-hydroxy-camptothecin], the “drug response curves of bulk organoids compared with MOSs (cell viability)” value in data set [5] and in [1] was “comparable responses” each time.
With `CC(=O)Nc1ccc(O)cc1` [acetaminophen], in the data set on mouse liver MOSs, the “effect on tissue in mouse liver MOSs versus control group” value is “smaller and contains many dead cells”. Besides, the “effect on tissue in human liver MOSs versus control group” value in the data set on human liver MOSs is “significant increase atypical tissue structures (arrows) and debris”.
On to Nivolumab, for which the “response of MOSs in the form of tumor cell apoptosis (Annexin V marker)” value in data set [6] and in data set [7] was “induces apoptosis; also recorded: good response” each time.
